pIC50: −log10 of the molar value.
biological target: T1, catalytic domain of human Bub1 (amino acids 704-1085) (Homo sapiens, UniProt O43683); assay: Bub1 kinase assay (TR-FRET); assay type: biochemical; conditions: TR-FRET; ATP 10 μM, peptide substrate 1 μM; 60 min at 22° C.; average or median if tested more than once; read-out: Inhibition of Bub1 kinase IC50
T1 construct: catalytic domain of human Bub1 (amino acids 704-1085); His6 (N); made in house; host or cells: Hi5 insect cells
In short: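 Human Bub1 catalytic domain (704-1085, His6-tagged, Hi5-expressed, ~200 ng/mL) preincubated with compound 15 min at 22 °C, then reacted 60 min at 22 °C with 10 μM ATP and 1 μM biotinylated peptide substrate, pH 7.5. EDTA stop; TR-FRET 665/620 ratio; IC50 from 4-parameter fit, 11 concentrations in duplicate.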

T1 sequence (O43683 704-1085): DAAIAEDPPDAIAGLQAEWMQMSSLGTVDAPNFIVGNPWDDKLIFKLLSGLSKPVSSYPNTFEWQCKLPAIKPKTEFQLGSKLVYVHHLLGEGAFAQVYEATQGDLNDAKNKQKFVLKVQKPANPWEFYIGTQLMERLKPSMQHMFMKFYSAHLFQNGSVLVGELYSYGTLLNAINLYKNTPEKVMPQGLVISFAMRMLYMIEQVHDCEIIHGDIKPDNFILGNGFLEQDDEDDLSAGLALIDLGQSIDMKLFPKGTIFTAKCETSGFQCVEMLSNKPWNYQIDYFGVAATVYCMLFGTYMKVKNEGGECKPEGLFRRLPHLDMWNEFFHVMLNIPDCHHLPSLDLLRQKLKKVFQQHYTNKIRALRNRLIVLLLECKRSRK

SMILES	pIC50
O=C1CN(C(=O)N2CCCC2)Cc2[nH]c(-c3ccncc3)c(Nc3ccccc3)c21 [Example 92, 3-(phenylamino)-2-(pyridin-4-yl)-6-(pyrrolidin-1-ylcarbonyl)-1,5,6,7-tetrahydro-4H-pyrrolo[2,3-c]pyridin-4-one]	8.40
CNC(=O)N1CC(=O)c2c([nH]c(-c3ccncc3OCC(F)F)c2Nc2ccccc2)C1 [Example 237, 2-[3-(2,2-Difluoroethoxy)pyridin-4-yl]-N-methyl-4-oxo-3-(phenylamino)-1,4,5,7-tetrahydro-6H-pyrrolo[2,3-c]pyridine-6-carboxamide]	7.74
CNC(=O)N1CC(=O)c2c([nH]c(-c3ccnc(NC(C)=O)c3)c2Nc2ccccc2)C1 [Example 168, 2-(2-Acetamidopyridin-4-yl)-3-anilino-N-methyl-4-oxo-1,4,5,7-tetrahydro-6H-pyrrolo[2,3-c]pyridine-6-carboxamide]	8.30
CC(C)(C)OC(=O)N1CC(=O)c2c([nH]c(-c3ccncc3Br)c2Nc2ccccc2)C1 [Example 100, tert-Butyl 2-(3-bromopyridin-4-yl)-4-oxo-3-(phenylamino)-1,4,5,7-tetrahydro-6H-pyrrolo[2,3-c]pyridine-6-carboxylate]	7.59
CC(C)(C)OC(=O)N1CC(=O)c2c([nH]c(-c3ccnc(NC(=O)[C@@H]4C[C@@H]4F)c3)c2Nc2ccccc2)C1 [Example 196, tert-Butyl 3-anilino-2-[2-({[(1S,2S)-2-fluorocyclopropyl]carbonyl}amino)pyridin-4-yl]-4-oxo-1,4,5,7-tetrahydro-6H-pyrrolo[2,3-c]pyridine-6-carboxylate]	8.15
COc1ccc(C(=O)Nc2cc(-c3[nH]c4c(c3Nc3ccccc3)C(=O)CN(S(=O)(=O)N(C)C)C4)ccn2)cc1F [Example 289, N-4-[6-(Dimethylsulfamoyl)-4-oxo-3-(phenylamino)-4,5,6,7-tetrahydr-1H-pyrrolo[2,3-c]pyridin-2-yl]pyridin-2-yl-3-fluoro-4-methoxybenzamide]	8.22
CC(C)OC(=O)N1CC(=O)c2c([nH]c(-c3ccnc(NC(=O)[C@@H]4C[C@@H]4F)c3)c2Nc2ccccc2)C1 [Example 216, Propan-2-yl 2-[2-([(1S,2S)-2-fluorocyclopropyl]carbonylamino)pyridin-4-yl]-4-oxo-3-(phenylamino)-1,4,5,7-tetrahydro-6H-pyrrolo[2,3-c]pyridine-6-carboxylate]	8.22
O=C1CN(C(=O)N2CCNC2=O)Cc2[nH]c(-c3ccncc3)c(Nc3ccccc3)c21 [Example 91, 6-[(2-Oxoimidazolidin-1-yl)carbonyl]-3-(phenylamino)-2-(pyridin-4-yl)-1,5,6,7-tetrahydro-4H-pyrrolo[2,3-c]pyridin-4-one]	7.85
CC(=O)Nc1cc(-c2[nH]c3c(c2Nc2ccccc2)C(=O)CN(C(=O)CCC(F)(F)F)C3)ccn1 [Example 190, N-{4-[3-Anilino-4-oxo-6-(4,4,4-trifluorobutanoyl)-4,5,6,7-tetrahydro-1H-pyrrolo[2,3-c]pyridin-2-yl]pyridin-2-yl}acetamide]	6.87
O=C1CN(S(=O)(=O)c2ccccn2)Cc2[nH]c(-c3ccncc3)c(Nc3ccccc3)c21 [Example 74, 3-(phenylamino)-2-(pyridin-4-yl)-6-(pyridin-2-ylsulfonyl)-1,5,6,7-tetrahydro-4H-pyrrolo[2,3-c]pyridin-4-one]	8.22
COc1cnccc1-c1[nH]c2c(c1Nc1ccccc1)C(=O)CN(C(=O)C1CC1)C2 [Example 108, 6-(Cyclopropylcarbonyl)-2-(3-methoxypyridin-4-yl)-3-(phenylamino)-1,5,6,7-tetrahydro-4H-pyrrolo[2,3-c]pyridin-4-one]	8.10
COC(=O)Nc1cc(-c2[nH]c3c(c2Nc2ccccc2)C(=O)COC3)ccn1 [Example 53, Methyl {4-[4-oxo-3-(phenylamino)-1,4,5,7-tetrahydropyrano[3,4-b]pyrrol-2-yl]pyridin-2-yl}carbamate]	7.09

From patent US20200216439A1, “HETERO-1,5,6,7-TETRAHYDRO-4H-INDOL-4-ONES” (BAYER PHARMA AKTIENGESELLSCHAFT, priority 2015, published 2020)
